These are literature values, as cited in article PMC8070829, “Discovery of New Coumarin-Based Lead with Potential Anticancer, CDK4 Inhibition and Selective Radiotheranostic Effect: Synthesis, 2D & 3D QSAR, Molecular Dynamics, In Vitro Cytotoxicity, Radioiodination, and Biodistribution Studies” (Molecules, 2021).

One series addresses CDK4. Particulars: cited from earlier work.
The next series concerns the target CDK6. The settings on record: cited from earlier work.

With `CSc1nc(C)c(-c2nc(Nc3ccc(N4CCN(C)CC4)cn3)ncc2C#N)s1` [VIIb], the Ki (commonly a dissociation constant, usually derived from enzyme kinetics or from competition with a known ligand) at CDK4 is 4 nM; on CDK6 it was 30 nM.
